In US6903130B1, “Pyrrolidineacetamide derivative alone or in combination for treatment of cns disorders” (UCB S.A., priority 1999, dated 2005):

Key:
[1] = test system: rats in which hyperactivity has been induced using the DEX-CDP mixture; test: Y maze test, hyperactivity induced by DEX-CDP mixture (Example 1); assay type: in vivo, rat; conditions: for Number of arms visited: median; for Effect on hyperactivity induced by DEX-CDP (in words): hyperactive rats; for Effect on hyperactivity induced by DEX-CDP (in words) / Effect of the compound per se on activity of non-hyperactive control (in words): i.p.; for Effect of the compound per se on activity of non-hyperactive control (in words): non-hyperactive control rats
Text: An increase in motor activity is a frequent symptom of manic disorders and as a consequence, it is often used as a model of mania in laboratory animals. […] Further, not all activity tests are suitable for observing reproducible hyperactivity.
Hyperactivity induced in rodents tested in a symmetrical v maze by a mixture of dexamphetamine and chlordiazepoxide (DEX-CDP) has been used by a number of researchers to study the effect of lithium (Cox C. et al., “Lithium attenuates “manic” activity in rats” Nature (1971), vol. 232 p 336-338—Vale A. L. and Ratcliffe F., “Effect of lithium administration on rat brain 5-hydroxyindole levels in a possible animal model of mania” Psychopharamacol. (1987), vol.91 p 352-355), or more recently the effect of the antiepiteptic “Valproate” (Cao B. J. and Peng N. A., “Magnesium valproate attenuates hyperactivity induced by dexamphetamine-chlordiazepoxide mixture in rodents” Eur. J. Pharmacol. (1993), vol. 237, p 177-181).
Lithium and valproate were also tested and used as reference compounds.
The animals used were male Sprague-Dawley rats (origin: OFA, IFFA CREDO, Belgium) weighing between 210 and 290 grams. They were placed in stainless steel cages in groups of 8. The day prior to the experiment, they were placed in macrolon cages (4 animals per cage: 38×27×15 centimeters (cm)) with the floor covered with sawdust. The cages were placed in an animal holding chamber provided with air conditioning, illuminated from 0600 hrs to 1800 hrs. Food and water were available “ad libitum”.
The apparatus used was a Y maze (each arm being 40 cm long and 15 cm wide with 35 cm walls) constructed from grey Plexiglass, located in a faintly illuminated room (Less than 5 Lux at ground level) and used to measure the rats' activity. The activity was estimated by recording the number of entries into the arms of the maze over a five-minute period. A video camera was positioned at a height of one meter above the apparatus and connected to a monitor located in an adjacent room in which an experimenter counted the number of entries into the arms.
The injection of different compounds into the rats was performed under the following conditions. 12.5 mg/kg of chlordiazepoxide and 1.18 mg/kg of D-amphetamine sulfate were dissolved in a saline solution (0.9%) and administered simultaneously by subcutaneous injection 35 minutes before the test in a volume of 1 ml/kg. 17 and 54 mg/kg of levetiracetam were dissolved in a saline aqueous solution (0.9%) and injected intraperitoneally 30 minutes before the test (table 4). 50, 100 and 200 mg/kg of sodium valproate were dissolved in an aqueous saline solution (0.9%) and injected intraperitoneally 15 minutes before the test (table 2). 2 and 4 milliequivalents (meq) of […] of lithium chloride were dissolved in a saline solution (0.9%) and injected intraperitoneally 215 minutes before the test (table 1). The test drugs were injected in a volume of 5 ml/kg.
The effects of the different drugs were studied separately. In each experiment, the animals were placed in different groups ([…]) in a random fashion. During the test, each rat was placed in the center of the apparatus and the number of visits into the arms was recorded as an activity index.
For the results to be properly statistically analyzed, they were expressed as median with the first and third quartile. General comparisons of the statistics were carried out using a Kruskal-Wallis test for the controls and the effect of the compound per se. This test was also used to compare the effect of the (DEX-CDP) mixture, and the effect of the compounds against the hyperactivity induced by the (DEX-CDP) mixture.

[2] = test system: GABA levels, GABA transaminase and glutamic decarboxylase; conditions: mouse brain; cited from earlier work

Row | SMILES | Number of arms visited ([1]; DEX-CDP mixture + levetiracetam 17 mg/kg i.p.) | Number of arms visited ([1]; DEX-CDP mixture + levetiracetam 54 mg/kg i.p.) | Effect on hyperactivity induced by DEX-CDP (in words) [1] | Effect on hyperactivity induced by DEX-CDP (in words) ([1]; listed as levetiracetam) | Number of arms visited ([1]; levetiracetam 17 mg/kg i.p. alone, no mixture) | Number of arms visited ([1]; levetiracetam 54 mg/kg i.p. alone, no mixture) | Effect of the compound per se on activity of non-hyperactive control (in words) [1] | effect on GABA levels and the enzymatic activities of GABA transaminase and glutamic decarboxylase [2] | Number of arms visited ([1]; DEX-CDP mixture + sodium valproate 50 mg/kg i.p.) | Number of arms visited ([1]; DEX-CDP mixture + sodium valproate 100 mg/kg i.p.) | Number of arms visited ([1]; DEX-CDP mixture + sodium valproate 200 mg/kg i.p.) | Number of arms visited ([1]; sodium valproate 50 mg/kg i.p. alone, no mixture) | Number of arms visited ([1]; sodium valproate 100 mg/kg i.p. alone, no mixture) | Number of arms visited ([1]; sodium valproate 200 mg/kg i.p. alone, no mixture)
1 | CC[C@@H](C(N)=O)N1CCCC1=O [Levetiracetam, (S)-(−)α-ethyl-2-oxo-1-pyrrolidineacetamide] | 36 | 26 | significantly counteracted the hyperactivity induced by DEX-CDP at a dose of 54 mg/kg | normalization to the activity level of the non-hyperactive control rats | 31 | 28 | only a slight hyperactivity at a dose of 17 mg/kg | lack of effect |  |  |  |  |  | 
2 | CCCC(CCC)C(=O)[O-].[Na+] [Valproate, sodium valproate] |  |  | significantly counteracted hyperactivity at a dose of 200 mg/kg |  |  |  | strong dose dependent hyperactivity |  | 38 | 39 | 20 | 28 | 34 | 40
